Data reported in ChEMBL document CHEMBL1177848, “Synthesis of novel 6,6a,7,8-tetrahydro-5H-naphtho[1,2-e]pyrimido[4,5-b][1,4]diazepines under microwave irradiation as potential anti-tumor agents” (2010).
Calls of active or inactive are those of the source. No cut-off for these calls is given here.

Columns and labels:
[1] = tested on: SR; assay: Growth inhibition of human SR cells after 48 hrs by sulforhodamine B assay; format: functional
[2] = tested on: MCF7; assay: Growth inhibition of human MCF7 cells after 48 hrs by sulforhodamine B assay; format: functional; details: MCF7, 48 h
[3] = tested on: SW-620; assay: Growth inhibition of human SW620 cells after 48 hrs by sulforhodamine B assay; format: functional; details: SW-620, 48 h
[4] = tested on: IGROV-1; assay: Growth inhibition of human IGROV1 cells at 1 uM after 48 hrs by sulforhodamine B assay; format: functional, cell-based
[5] = tested on: TK-10; assay: Growth inhibition of human TK10 cells at 1 uM after 48 hrs by sulforhodamine B assay; format: functional, cell-based
[6] = tested on: HCT-15; assay: Growth inhibition of human HCT15 cells after 48 hrs by sulforhodamine B assay; format: functional; details: HCT-15, 48 h
[7] = tested on: U-251; assay: Growth inhibition of human U251 cells at 1 uM after 48 hrs by sulforhodamine B assay; format: functional, cell-based
[8] = tested on: HL-60; assay: Growth inhibition of human HL-60(TB) cells at 1 uM after 48 hrs by sulforhodamine B assay; format: functional, cell-based
[9] = tested on: Malme-3M; assay: Growth inhibition of human MALME-3M cells after 48 hrs by sulforhodamine B assay; format: functional
[10] = tested on: NCI-H460; assay: Growth inhibition of human NCI-H460 cells after 48 hrs by sulforhodamine B assay; format: functional; details: NCI-H460, 48 h
[11] = tested on: MOLT-4; assay: Growth inhibition of human MOLT4 cells at 1 uM after 48 hrs by sulforhodamine B assay; format: functional, cell-based
[12] = tested on: CAKI-1; assay: Growth inhibition of human Caki1 cells at 1 uM after 48 hrs by sulforhodamine B assay; format: functional, cell-based
[13] = tested on: SN12C; assay: Growth inhibition of human SN12C cells at 1 uM after 48 hrs by sulforhodamine B assay; format: functional, cell-based
[14] = tested on: COLO 205; assay: Growth inhibition of human COLO205 cells at 1 uM after 48 hrs by sulforhodamine B assay; format: functional, cell-based
[15] = tested on: OVCAR-3; assay: Growth inhibition of human OVCAR-3 cells at 1 uM after 48 hrs by sulforhodamine B assay; format: functional, cell-based
[16] = tested on: NCI-H322M; assay: Growth inhibition of human […] cells at 1 uM after 48 hrs by sulforhodamine B assay; format: functional, cell-based
[17] = tested on: SN12C; assay: Growth inhibition of human SN12C cells after 48 hrs by sulforhodamine B assay; format: functional; details: for CC50: read-out: LC50 (the source's name)
[18] = tested on: EKVX; assay: Growth inhibition of human EKVX cells after 48 hrs by sulforhodamine B assay; format: functional
[19] = tested on: NCI-H226; assay: Growth inhibition of human NCI-H226 cells at 1 uM after 48 hrs by sulforhodamine B assay; format: functional, cell-based
[20] = tested on: U-251; assay: Growth inhibition of human U251 cells after 48 hrs by sulforhodamine B assay; format: functional; details: U-251, 48 h
[21] = tested on: BT-549; assay: Growth inhibition of human BT549 cells at 1 uM after 48 hrs by sulforhodamine B assay; format: functional, cell-based
[22] = tested on: HCT-116; assay: Growth inhibition of human HCT116 cells at 1 uM after 48 hrs by sulforhodamine B assay; format: functional, cell-based
[23] = tested on: HT-29; assay: Growth inhibition of human HT-29 cells after 48 hrs by sulforhodamine B assay; format: functional; details: HT-29, 48 h; for CC50: read-out: LC50 (the source's name)
[24] = tested on: NCI/ADR-RES; assay: Growth inhibition of human NCI/ADR-RES cells after 48 hrs by sulforhodamine B assay; format: functional
[25] = tested on: RXF 393; assay: Growth inhibition of human RXF393 cells after 48 hrs by sulforhodamine B assay; format: functional; details: RXF 393, 48 h
[26] = tested on: BT-549; assay: Growth inhibition of human BT549 cells after 48 hrs by sulforhodamine B assay; format: functional; details: BT-549, 48 h; for CC50: read-out: LC50 (the source's name)
[27] = tested on: IGROV-1; assay: Growth inhibition of human IGROV1 cells after 48 hrs by sulforhodamine B assay; format: functional; details: IGROV-1, 48 h
[28] = tested on: PC-3; assay: Growth inhibition of human PC3 cells after 48 hrs by sulforhodamine B assay; format: functional; details: PC-3, 48 h
[29] = tested on: A498; assay: Growth inhibition of human A498 cells at 1 uM after 48 hrs by sulforhodamine B assay; format: functional, cell-based
[30] = tested on: K562; assay: Growth inhibition of human K562 cells at 1 uM after 48 hrs by sulforhodamine B assay; format: functional, cell-based
[31] = tested on: UO-31; assay: Growth inhibition of human UO31 cells at 1 uM after 48 hrs by sulforhodamine B assay; format: functional, cell-based
[32] = tested on: EKVX; assay: Growth inhibition of human EKVX cells at 1 uM after 48 hrs by sulforhodamine B assay; format: functional, cell-based
[33] = tested on: T47D; assay: Growth inhibition of human T47D cells after 48 hrs by sulforhodamine B assay; format: functional; details: for CC50: read-out: LC50 (the source's name)
[34] = tested on: NCI-H23; assay: Growth inhibition of human NCI-H23 cells at 1 uM after 48 hrs by sulforhodamine B assay; format: functional, cell-based
[35] = tested on: UO-31; assay: Growth inhibition of human UO31 cells after 48 hrs by sulforhodamine B assay; format: functional; details: UO-31, 48 h
[36] = tested on: Malme-3M; assay: Growth inhibition of human MALME-3M cells at 1 uM after 48 hrs by sulforhodamine B assay; format: functional, cell-based
[37] = tested on: NCI-H226; assay: Growth inhibition of human NCI-H226 cells after 48 hrs by sulforhodamine B assay; format: functional; details: NCI-H226, 48 h
[38] = tested on: A498; assay: Growth inhibition of human A498 cells after 48 hrs by sulforhodamine B assay; format: functional; details: A498, 48 h
[39] = tested on: HOP-92; assay: Growth inhibition of human HOP92 cells after 48 hrs by sulforhodamine B assay; format: functional; details: HOP-92, 48 h
[40] = tested on: ACHN; assay: Growth inhibition of human ACHN cells after 48 hrs by sulforhodamine B assay; format: functional
[41] = tested on: MDA-MB-435; assay: Growth inhibition of human MDA-MB-435 cells after 48 hrs by sulforhodamine B assay; format: functional; details: MDA-MB-435, 48 h
[42] = tested on: HCC 2998; assay: Growth inhibition of human HCC2998 cells at 1 uM after 48 hrs by sulforhodamine B assay; format: functional, cell-based
[43] = tested on: CAKI-1; assay: Growth inhibition of human Caki1 cells after 48 hrs by sulforhodamine B assay; format: functional; details: CAKI-1, 48 h; for CC50: read-out: LC50 (the source's name)
[44] = tested on: MDA-MB-468; assay: Growth inhibition of human MDA-MB-468 cells at 1 uM after 48 hrs by sulforhodamine B assay; format: functional, cell-based
[45] = tested on: M14; assay: Growth inhibition of human M14 cells at 1 uM after 48 hrs by sulforhodamine B assay; format: functional, cell-based
[46] = tested on: MDA-MB-231; assay: Growth inhibition of human MDA-MB-231 cells after 48 hrs by sulforhodamine B assay; format: functional; details: MDA-MB-231, 48 h; for CC50: read-out: LC50 (the source's name)

Nc1nc(N)c2c(n1)NC(c1ccc(F)cc1)C1CCc3ccccc3C1=N2 (stereo not given)
GI50 [1]: 1.65 µM
LC50 [1]: 12.5 µM
GI50 [2]: 2.67 µM
LC50 [2]: 36.3 µM
GI50 [3]: 4.87 µM
LC50 [3]: 42.9 µM
growth inhibition (GI) [4]: inactive
growth inhibition (GI) [5]: inactive
GI50 [6]: 3.99 µM
LC50 [6]: 43 µM
growth inhibition (GI) [7]: inactive
growth inhibition (GI) [8]: inactive
GI50 [9]: 2.52 µM
LC50 [9]: 68.6 µM
GI50 [10]: 3.76 µM
LC50 [10]: 43.3 µM
growth inhibition (GI) [11]: inactive
growth inhibition (GI) [12]: inactive
growth inhibition (GI) [13]: inactive
growth inhibition (GI) [14]: inactive
growth inhibition (GI) [15]: inactive
growth inhibition (GI) [16]: inactive
GI50 [17]: 7.8 µM
CC50 [17]: 50.9 µM
GI50 [18]: 2.83 µM
LC50 [18]: 62.6 µM
growth inhibition (GI) [19]: inactive
GI50 [20]: 4.29 µM
LC50 [20]: 44.1 µM
growth inhibition (GI) [21]: inactive
growth inhibition (GI) [22]: inactive
GI50 [23]: 3.84 µM
CC50 [23]: 38.7 µM
GI50 [24]: 3.19 µM
LC50 (concentration killing 50% of cells) [24]: 39.4 µM
GI50 [25]: 5.48 µM
LC50 (50% lethal concentration) [25]: 60.4 µM
GI50 [26]: 3.89 µM
CC50 [26]: 43.5 µM
GI50 [27]: 7.79 µM
LC50 (concentration killing 50% of cells) [27]: 63.9 µM
GI50 [28]: 2.03 µM
LC50 [28]: 40.3 µM
growth inhibition (GI) [29]: inactive
growth inhibition (GI) [30]: inactive
growth inhibition (GI) [31]: inactive
growth inhibition (GI) [32]: inactive
GI50 [33]: 3.86 µM
CC50 [33]: 62.9 µM
growth inhibition (GI) [34]: inactive
GI50 [35]: 3.34 µM
LC50 [35]: 55.3 µM
growth inhibition (GI) [36]: inactive
GI50 [37]: 5.97 µM
LC50 [37]: 74.4 µM
GI50 [38]: 2.87 µM
LC50 [38]: 30.6 µM
GI50 [39]: 1.17 µM
LC50 (50% lethal concentration) [39]: 31.5 µM
GI50 [40]: 4.96 µM
LC50 (50% lethal concentration) [40]: 42.2 µM
GI50 [41]: 2.84 µM
LC50 (concentration killing 50% of cells) [41]: 35.1 µM
growth inhibition (GI) [42]: inactive
GI50 [43]: 2.72 µM
CC50 [43]: 44.6 µM
growth inhibition (GI) [44]: inactive
growth inhibition (GI) [45]: inactive
GI50 [46]: 5.8 µM
CC50 [46]: 48.5 µM

Nc1nc(N)c2c(n1)NC(c1ccc(Cl)cc1)C1CCc3ccccc3C1=N2 (stereo not given)
GI50 [1]: 1.73 µM
LC50 [1]: 36.3 µM
GI50 [2]: 2.41 µM
LC50 [2]: 33.7 µM
GI50 [3]: 8.23 µM
LC50 [3]: 54.9 µM
growth inhibition (GI) [4]: inactive
growth inhibition (GI) [5]: inactive
GI50 [6]: 4.16 µM
LC50 [6]: 53.9 µM
growth inhibition (GI) [7]: inactive
growth inhibition (GI) [8]: inactive
GI50 [9]: 8.48 µM
LC50 [9]: 54 µM
GI50 [10]: 3.77 µM
LC50 [10]: 39.1 µM
growth inhibition (GI) [11]: inactive
growth inhibition (GI) [12]: inactive
growth inhibition (GI) [13]: inactive
growth inhibition (GI) [14]: inactive
growth inhibition (GI) [15]: inactive
growth inhibition (GI) [16]: inactive
GI50 [17]: 7.68 µM
CC50 [17]: 50.9 µM
GI50 [18]: 3.62 µM
LC50 [18]: 96.5 µM
growth inhibition (GI) [19]: inactive
GI50 [20]: 3.81 µM
LC50 [20]: 43.9 µM
growth inhibition (GI) [21]: inactive
growth inhibition (GI) [22]: inactive
GI50 [23]: 4.31 µM
CC50 [23]: 52.6 µM
GI50 [24]: 5.53 µM
LC50 (concentration killing 50% of cells) [24]: 43.8 µM
GI50 [25]: 4.68 µM
LC50 (50% lethal concentration) [25]: 54.4 µM
GI50 [26]: 9.01 µM
CC50 [26]: 52.6 µM
GI50 [27]: 6.16 µM
LC50 (concentration killing 50% of cells) [27]: 49.9 µM
GI50 [28]: 2.86 µM
LC50 [28]: 48.9 µM
growth inhibition (GI) [29]: inactive
growth inhibition (GI) [30]: inactive
growth inhibition (GI) [31]: inactive
growth inhibition (GI) [32]: inactive
GI50 [33]: 4.09 µM
CC50 [33]: 59.8 µM
growth inhibition (GI) [34]: inactive
GI50 [35]: 3.63 µM
LC50 [35]: 46.2 µM
growth inhibition (GI) [36]: inactive
GI50 [37]: 8.58 µM
LC50 [37]: 80.6 µM
GI50 [38]: 5.34 µM
LC50 [38]: 44.9 µM
GI50 [39]: 2.26 µM
LC50 (50% lethal concentration) [39]: 31.9 µM
GI50 [40]: 4.72 µM
LC50 (50% lethal concentration) [40]: 44.2 µM
GI50 [41]: 4.72 µM
LC50 (concentration killing 50% of cells) [41]: 54.1 µM
growth inhibition (GI) [42]: inactive
GI50 [43]: 4.33 µM
CC50 [43]: 50 µM
growth inhibition (GI) [44]: inactive
growth inhibition (GI) [45]: inactive
GI50 [46]: 9.73 µM
CC50 [46]: 47.9 µM
